Data: paper PMC4782294, “ERK mediated upregulation of death receptor 5 overcomes the lack of p53 functionality in the diaminothiazole DAT1 induced apoptosis in colon cancer models: efficiency of DAT1 in Ras-Raf mutated cells” (Molecular Cancer, 2016)

Tests used:
Caco 2 = test: MTT cytotoxicity assay; format: cell-based; details: Homo sapiens, Caco 2, 48 h
Procedure: (§1) Cells were seeded in 96 well plates. At about70 % confluency, they were treated with different concentrations of drugs either individually or in combination. After 48 h, MTT assay was done (Mossmann 1983) and absorbance was measured at 570 nm (Biorad Microplate reader). Percentage viability was plotted against the respective concentrations of the drugs and half inhibitory concentration (IC50) was calculated with the non linear regression programme of Origin.

Colo 320 DM [1] = test: MTT cytotoxicity assay; format: cell-based; details: Homo sapiens, 48 h
Procedure: as §1

HCT116 p53 -/- = test: MTT cytotoxicity assay; format: cell-based; details: Homo sapiens, HCT-116, 48 h
Procedure: as §1

HCT116 [2] = test: MTT cytotoxicity assay; format: cell-based; details: Homo sapiens, HCT-116, HCT116, 48 h
Procedure: as §1

HT 29 = test: MTT cytotoxicity assay; format: cell-based; details: Homo sapiens, HT 29, 48 h
Procedure: as §1

SW 480 = test: MTT cytotoxicity assay; format: cell-based; details: Homo sapiens, SW480, SW 480, 48 h
Procedure: as §1

SW 620 = test: MTT cytotoxicity assay; format: cell-based; details: Homo sapiens, SW 620, 48 h
Procedure: as §1

Caco2 = test: DAPI staining for detection of apoptosis (chromatin condensation); format: cell-based; details: Caco2, approximately 1.5 times the IC50 concentration, 24 h
Procedure: (§2) The cells were grown on coverslips in 24 well plates and incubated with respective drug or inhibitor for 24 h. They were then washed with PBS, fixed with chilled methanol-EDTA for 10 min and rehydrated with PBS for 10 min at room temperature. Successively, the cells were treated with DAPI (0.5 μg/ml) for 2 min in the dark. The coverslips were then mounted on fluoromount G and viewed at 40X in the UV region using a fluorescence microscope (Olympus IX71).

Colo 320 DM [3] = test: as above; format: cell-based; details: approximately 1.5 times the IC50 concentration, 24 h
Procedure: as §2

HCT116 p53 −/− = test: as above; format: cell-based
Procedure: as §2

HCT116 [4] = test: as above; format: cell-based
Procedure: as §2

[5] = system: HCT116 p53 −/− xenograft tumours; test: Colon cancer xenograft study; format: in vivo, SCID/NOD mice
Procedure: (§3) SCID/NOD mice were divided into groups of ten and allowed to acclimatize. After 5 days, tumours were raised by injecting HCT116 or HCT116 p53 −/− cells (1.5 × 10^5 cells suspended in PBS) subcutaneously in the inner flank region. Once the tumour volumes reached 20–80 mm^3, drug was administered intraperitoneally, thrice a week at different concentrations.

HCT116 xenograft tumours = test: Colon cancer xenograft study; format: in vivo, SCID/NOD mice
Procedure: as §3

Swiss Albino mice [6] = test: Acute toxicity study; format: in vivo; details: for Final weight: after 14 days; for Initial weight: before drug administration
Procedure: In acute toxicity studies, Swiss Albino mice were divided in to six groups of six animal each and DAT1 (12–50 mg/kg) was administered intraperitoneally (i.p) and observed for 14 days for signs of weight loss, dehydration or mortality. DAT1 was dissolved in vehicle cremaphor:ethanol (1:1) and diluted in 0.9 % saline.
Swiss Albino mice were divided into 6 groups of 6 mice each and were injected with either DAT1 or vehicle intraperitoneally. […] Group I: 12mg/kg, Group II: 20 mg/kg, Group III: 30 mg/kg, Group IV: 40 mg/kg, Group V: 50 mg/kg

Swiss Albino mice [7] = test: Sub-acute toxicity study; format: in vivo; details: for RBC / WBC / ALP / ALT / AST / BUN / Creatinine: 3 months; for ALP / ALT / AST / BUN / Creatinine: serum
Procedure: In sub-acute toxicity studies, Swiss albino mice were divided into five groups of eight animals each. Three groups of Swiss Albino mice were administered (i.p injection) with 4, 8 or 16 mg/kg DAT1, and the control and vehicle control groups were administered with 0.9 % saline or vehicle respectively. Injections were given every alternate day for the first 10 days and after that, twice weekly for a period of 3 months. After 3 months animals were sacrificed and whole blood, liver and kidney were collected. Hematotoxicity was checked by RBC and WBC count. Hepatotoxicity was measured by monitoring the serum ALT and AST levels. Nephrotoxicity was measured by monitoring BUN and creatinine levels in the serum. ALP activity was measured for detection of liver or bone toxicity.

DR5 = DR5 induction by western blotting; format: cell-based; details: cells with non functional p53 (HCT116 p53 −/−, SW620, SW480, HT29), ~1.5 X IC50
Procedure: (§4) Cells were grown to 70–80 % confluency in 60 mm culture dishes. After drug treatment, they were harvested and lysed. Protein samples from tissues were collected by homogenizing the tissue in the presence of lysis buffer, followed by centrifugation for 20 min. The protein samples were run in a 10–12 % gel and transferred on to a PVDF membrane. The membranes were probed with specific primary antibodies (1:1000) overnight followed by secondary antibodies conjugated with horse radish peroxidase/alkaline phosphatase (1:2000) for 1 hr at room temperature and were developed by chemiluminescence or alkaline phosphatase method.

ERK = ERK activation by western blotting; format: cell-based
Procedure: as §4

caspase 8 = test: Caspase 8 activation by western blotting; format: cell-based; details: cell lines irrespective of their p53 status
Procedure: as §4

COc1ccc(Nc2nc(N)c(C(=O)c3ccccc3)s2)cc1 [DAT1, 4-Amino-5-benzoyl-2-(4-methoxyphenylamino)thiazole]
IC50 (Caco 2): 5.32 ± 0.162 µM | IC50 (Colo 320 DM [1]): 655 ± 48 nM | IC50 (HCT116 p53 -/-): 709 ± 80 nM | IC50 (HCT116 [2]): 300 ± 80 nM | IC50 (HT 29): 200 ± 80 nM | IC50 (SW 480): 795 ± 90 nM | IC50 (SW 620): 420 ± 70 nM | apoptosis (chromosome condensation) (Caco2): 32% | apoptosis (chromosome condensation) (Colo 320 DM [3]): 38% | percentage of apoptotic cells (HCT116 p53 −/−; DAT1 alone, 24 h): 60% | percentage of apoptotic cells (HCT116 p53 −/−; DAT1 in the presence of MEK inhibitor U0126): 5% | percentage of apoptotic cells (HCT116 [4]; HCT116, DAT1 alone, 24 h): 67% | percentage of apoptotic cells (HCT116 [4]; HCT116, DAT1 in the presence of MEK inhibitor U0126): 3% | reduction in tumour inhibition vs parental HCT116 ([5]; 20 mg/kg): about 19% | tumour inhibition ([5]; HCT116 p53 −/− tumours, 20 mg/kg i.p., thrice a week, 28 days): 53.4% | mean tumour volume ([5]; HCT116 p53−/− xenograft, treatment for 28 days, i.p.): reduced the mean tumour volume effectively in a concentration dependent way | tumour inhibition (HCT116 xenograft tumours; HCT116 tumours, 20 mg/kg i.p., thrice a week, 28 days): 72.3% | mean tumour volume (HCT116 xenograft tumours; HCT116 xenograft, treatment for 28 days, i.p.): reduced the mean tumour volume effectively in a concentration dependent way | Final weight (Swiss Albino mice [6]; 12 mg/kg i.p.): 33.1 ± 1.56 g | Initial weight (Swiss Albino mice [6]; 12 mg/kg i.p.): 32.4 ± 1.34 g | Final weight (Swiss Albino mice [6]; 20 mg/kg i.p.): 33.46 ± 3.87 g | Initial weight (Swiss Albino mice [6]; 20 mg/kg i.p.): 32.8 ± 5.44 g | Final weight (Swiss Albino mice [6]; 30 mg/kg i.p.): 29.86 ± 2.82 g | Initial weight (Swiss Albino mice [6]; 30 mg/kg i.p.): 27.2 ± 1.22 g | Final weight (Swiss Albino mice [6]; 40 mg/kg i.p.): 27.8 ± 2.67 g | Initial weight (Swiss Albino mice [6]; 40 mg/kg i.p.): 26.6 ± 2.4 g | Final weight (Swiss Albino mice [6]; 50 mg/kg i.p.): 26.12 ± 2.14 g | Initial weight (Swiss Albino mice [6]; 50 mg/kg i.p.): 25.6 ± 2.03 g | RBC (Swiss Albino mice [7]; 4 mg/kg i.p.): 4.42 ± 0.75 million/mm^3 | WBC (Swiss Albino mice [7]; 4 mg/kg i.p.): 8100 ± 1979 per mm^3 | ALP (Swiss Albino mice [7]; 4 mg/kg i.p.): 158.32 ± 8.32 U/L | ALT (Swiss Albino mice [7]; 4 mg/kg i.p.): 54.38 ± 4.15 U/L | AST (Swiss Albino mice [7]; 4 mg/kg i.p.): 128 ± 25.1 U/L | BUN (Swiss Albino mice [7]; 4 mg/kg i.p.): 29.8 ± 1.25 mg/dL | Creatinine (Swiss Albino mice [7]; 4 mg/kg i.p.): 0.82 ± 0.1 mg/dL | RBC (Swiss Albino mice [7]; 8 mg/kg i.p.): 4.48 ± 0.34 million/mm^3 | WBC (Swiss Albino mice [7]; 8 mg/kg i.p.): 6220 ± 1626.34 per mm^3 | ALP (Swiss Albino mice [7]; 8 mg/kg i.p.): 136.48 ± 10.69 U/L | ALT (Swiss Albino mice [7]; 8 mg/kg i.p.): 53.845 ± 4.81 U/L | AST (Swiss Albino mice [7]; 8 mg/kg i.p.): 128.165 ± 1.87 U/L | Creatinine (Swiss Albino mice [7]; 8 mg/kg i.p.): 0.76 ± 0.07 mg/dL | RBC (Swiss Albino mice [7]; 16 mg/kg i.p.): 4.475 ± 0.26 million/mm^3 | WBC (Swiss Albino mice [7]; 16 mg/kg i.p.): 4550 ± 264.575 per mm^3 | ALP (Swiss Albino mice [7]; 16 mg/kg i.p.): 155.61 ± 15.15 U/L | ALT (Swiss Albino mice [7]; 16 mg/kg i.p.): 148.39 ± 14.55 U/L | AST (Swiss Albino mice [7]; 16 mg/kg i.p.): 162.67 ± 12.73 U/L | BUN (Swiss Albino mice [7]; 16 mg/kg i.p.): 29.8 ± 1.27 mg/dL | Creatinine (Swiss Albino mice [7]; 16 mg/kg i.p.): 0.58 ± 0.09 mg/dL | body weight change (Swiss Albino mice [7]; 4, 8 or 16 mg/kg i.p., end of 3 months): no significant change in the weight | DR5 upregulation (DR5): caused DR5 upregulation | ERK activation (ERK; Colo 320 DM or Caco2 cell lines with wild type Ras or Raf, ~1.5 times IC50): unable to activate ERK | P-ERK activation (ERK; HCT116 and HCT116 p53−/− cells): caused P-ERK activation | caspase 8 activation (caspase 8): caused caspase 8 activation

CC(=O)O[C@H]1C(=O)[C@@]2(C)[C@H]([C@H](OC(=O)c3ccccc3)[C@]3(O)C[C@H](OC(=O)[C@H](O)[C@@H](NC(=O)c4ccccc4)c4ccccc4)C(C)=C1C3(C)C)[C@]1(OC(C)=O)CO[C@@H]1C[C@@H]2O [Taxol, paclitaxel]
IC50 (HCT116 p53 -/-): 6 ± 2 nM | IC50 (HCT116 [2]): 14 ± 7 nM | IC50 (HT 29): 10 ± 1.4 nM | IC50 (SW 480): 31.5 ± 1.4 nM | IC50 (SW 620): 24.5 ± 6 nM

CC[C@]1(O)C[C@@H]2CN(CCc3c([nH]c4ccccc34)[C@@](C(=O)OC)(c3cc4c(cc3OC)N(C)[C@H]3[C@@](O)(C(=O)OC)[C@H](OC(C)=O)[C@]5(CC)C=CCN6CC[C@]43[C@@H]65)C2)C1 [Vinblastine]
IC50 (HCT116 p53 -/-): 19.5 ± 0.7 nM | IC50 (HCT116 [2]): 4 ± 2 nM | IC50 (HT 29): 1.5 ± 0.7 nM | IC50 (SW 480): 3380 ± 247 nM | IC50 (SW 620): 300 ± 90 nM | apoptosis induction (HCT116 p53 −/−; 0.01 μM, 24 h): failed to induce apoptosis | apoptosis induction (HCT116 [4]; HCT116 p53 wild type, 0.01 μM, 24 h): large apoptotic response

O=c1[nH]cc(F)c(=O)[nH]1 [5 fluoro uracil, 5-fluorouracil]
IC50 (HCT116 p53 -/-): 19300 ± 1340 nM | IC50 (HCT116 [2]): 8690 ± 540 nM | IC50 (HT 29): 20200 ± 770 nM | IC50 (SW 480): 18600 ± 680 nM | IC50 (SW 620): 9650 ± 330 nM
